According to EP4656642A1, “ESTROGEN RECEPTOR PROTEOLYSIS TARGETING CHIMERA COMPOUND AND USE THEREOF” (GAN & LEE PHARM CO., LTD, priority 2023, dated 2024):

Tests used:
Type in all cases: cell-based
MCF-7 cells = assay: Inhibition of cell proliferation of MCF-7 cells (CCK-8, 9 days); conditions: treated for 9 days, CCK-8 kit (Table 6)
How it was run: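 MCF-7 cells seeded at 800 cells/well in DMEM with 10% FBS, exposed to a range of compound concentrations for 9 days at 37°C, 5% CO2. Viability read by CCK-8; IC50 derived for proliferation inhibition.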

ERα [1] = target: T1, ERα (Homo sapiens, UniProt P03372); assay: Degradation of ERα in T-47D cells (immunoblotting, 4 h); set-up: host or cells: T-47D
T1 sequence (P03372 1-595): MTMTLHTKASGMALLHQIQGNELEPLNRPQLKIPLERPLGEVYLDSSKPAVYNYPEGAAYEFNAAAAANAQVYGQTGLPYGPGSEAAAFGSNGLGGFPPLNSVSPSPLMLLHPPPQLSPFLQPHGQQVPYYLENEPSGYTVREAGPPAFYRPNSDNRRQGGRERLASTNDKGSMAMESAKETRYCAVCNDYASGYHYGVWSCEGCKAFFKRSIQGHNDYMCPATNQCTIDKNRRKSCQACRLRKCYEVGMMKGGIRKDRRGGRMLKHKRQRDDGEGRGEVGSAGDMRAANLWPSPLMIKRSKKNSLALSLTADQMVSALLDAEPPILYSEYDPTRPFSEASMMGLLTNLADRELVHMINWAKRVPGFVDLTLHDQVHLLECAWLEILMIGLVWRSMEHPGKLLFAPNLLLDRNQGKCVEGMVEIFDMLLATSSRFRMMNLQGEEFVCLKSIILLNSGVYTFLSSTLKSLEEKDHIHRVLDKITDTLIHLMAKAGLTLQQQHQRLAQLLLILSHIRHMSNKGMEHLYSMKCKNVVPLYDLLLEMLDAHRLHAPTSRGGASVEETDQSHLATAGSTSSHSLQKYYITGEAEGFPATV
How it was run: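 T-47D cells were treated with compound (final 0.15-1000 nM, DMSO) for 4 h at 37°C, 5% CO2. Cells were lysed in RIPA buffer with protease inhibitor, and ERα protein in the cleared lysate was measured by immunoblotting.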

ERα [2] = target: T1, ERα; assay: Degradation of ERα in MCF-7 cells (immunoblotting, 4 h)
How it was run: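 MCF-7 cells treated 4 h at 37°C with compounds at 0.15-1000nM final. ERα in lysates measured by immunoblot, with band grayscale normalized to an internal reference protein. Degradation rate calculated against DMSO-treated control.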

SMILES	IC50 (MCF-7 cells)	Degradation rate (%) of ERα in T-47D cells (ERα [1]; 1nM compound)	Degradation rate (%) of ERα in T-47D cells (ERα [1]; 10nM compound)	Degradation rate (%) of ERα in MCF-7 cells (ERα [2]; 1nM compound)	Degradation rate (%) of ERα in MCF-7 cells (ERα [2]; 10nM compound)
O=C1CCC(N2Cc3c(ccc4c3OCC43CCN(C4CC5(CCC6(CCN(C7CCN(c8ccc([C@@H]9c%10ccc(O)cc%10CC[C@@H]9c9ccccc9)cc8)CC7)CC6)CC5)C4)CC3)C2=O)C(=O)N1 (some centres unmarked) [K15]	196 nM	18%	35%	16%	42%
CC1CC(N2CCC3(CC2)COc2c3ccc3c2CN(C2CCC(=O)NC2=O)C3=O)CCN1C1CC2(CCN(c3ccc(C4c5ccc(O)cc5CCC4c4ccccc4)cc3)CC2)C1 (centres unmarked) [K18]	12.6 nM	42%	79%	43%	80%
CC1(C)CC(N2CCC3(CC2)COc2c3ccc3c2CN(C2CCC(=O)NC2=O)C3=O)CCN1C(=O)C1CCN(c2ccc([C@@H]3c4ccc(O)cc4CC[C@@H]3c3ccccc3)cc2)CC1 (some centres unmarked) [K28]	8.18 nM	62%	86%	66%	86%
CN(C)C(=O)[C@@H]1CC(N2CCC3(CC2)COc2c3ccc3c2CN(C2CCC(=O)NC2=O)C3=O)CCN1C(=O)C1CCN(c2ccc([C@@H]3c4ccc(O)cc4CC[C@@H]3c3ccccc3)cc2)CC1 (some centres unmarked) [K29]	19.5 nM	46%	79%	43%	66%
O=C1CCC(N2Cc3c(ccc4c3OCC43CCN(C4CCN(C(=O)C5CCN(c6ccc(C7c8ccc(O)cc8CCC7c7ccccc7)cc6)CC5)C(C(=O)N5CCCC5)C4)CC3)C2=O)C(=O)N1 (centres unmarked) [K30]	7.34 nM	63%	73%	48%	55%
O=C1CCC(N2Cc3c(ccc4c3OCC43CCN(C4CCN(C(=O)C5CCN(c6ccc(C7c8ccc(O)cc8CCC7c7ccccc7)cc6)CC5)C(C(=O)N5CCCCC5)C4)CC3)C2=O)C(=O)N1 (centres unmarked) [K31]	1.53 nM	73%	79%	61%	65%
CN(C)C(=O)[C@H]1CC(N2CCC3(CC2)COc2c3ccc3c2CN(C2CCC(=O)NC2=O)C3=O)CCN1C1CC2(CCN(c3ccc([C@@H]4c5ccc(O)cc5CC[C@@H]4c4ccccc4)cc3)CC2)C1 (some centres unmarked) [K32]	0.779 nM	67%	90%	66%	88%
O=C1CCC(N2Cc3c(ccc4c3OCC43CCN(C(=O)C4CN(CC5CCN(c6ccc([C@@H]7c8ccc(O)cc8CC[C@@H]7c7ccccc7)cc6)CC5)C4)CC3)C2=O)C(=O)N1 (some centres unmarked) [K33]	17.5 nM	58%	70%	57%	62%
O=C1CCC(N2Cc3c(ccc4c3OCC43CCN(C(=O)C4CCN(CC5CCN(c6ccc([C@@H]7c8ccc(O)cc8CC[C@@H]7c7ccccc7)cc6)CC5)CC4)CC3)C2=O)C(=O)N1 (some centres unmarked) [K34]	10.5 nM	76%	86%	75%	76%
N#CC1(C(=O)N2CCC(N3CCC4(CC3)COc3c4ccc4c3CN(C3CCC(=O)NC3=O)C4=O)CC2)CCN(c2ccc([C@@H]3c4ccc(O)cc4CC[C@@H]3c3ccccc3)cc2)CC1 (some centres unmarked) [K35]	32.8 nM	60%	72%	46%	64%
O=C1CCC(N2Cc3c(ccc4c3OCC43CCN(C(=O)C4CCN(C(=O)C5CCN(c6ccc([C@@H]7c8ccc(O)cc8CC[C@@H]7c7ccccc7)cc6)CC5)CC4)CC3)C2=O)C(=O)N1 (some centres unmarked) [K36]	15.2 nM	54%	76%	20%	61%
CN(C(=O)CN1CCC2(CC1)COc1c2ccc2c1CN(C1CCC(=O)NC1=O)C2=O)C1CCN(c2ccc([C@@H]3c4ccc(O)cc4CC[C@@H]3c3ccccc3)cc2)CC1 (some centres unmarked) [K37]	2510 nM	48%	56%	20%	23%
O=C1CCC(N2Cc3cc4c(cc3C2=O)OC2(CC4)CN(CC3CCN(C(=O)C4CCN(c5ccc([C@@H]6c7ccc(O)cc7CC[C@@H]6c6ccccc6)cc5)CC4)CC3)C2)C(=O)N1 (some centres unmarked) [K39]	59 nM	15%	69%	30%	56%
O=C1CCC(N2Cc3cc4c(cc3C2=O)CCC2(CN(CC3CCN(C(=O)C5CCN(c6ccc([C@@H]7c8ccc(O)cc8CC[C@@H]7c7ccccc7)cc6)CC5)CC3)C2)O4)C(=O)N1 (some centres unmarked) [K40]	2350 nM	40%	77%	14%	45%
O=C1CCC(N2Cc3c(ccc4c3OCC43CCN(C(=O)CN4CCN(C(=O)C5CCN(c6ccc([C@@H]7c8ccc(O)cc8CC[C@@H]7c7ccccc7)cc6)CC5)CC4)CC3)C2=O)C(=O)N1 (some centres unmarked) [K43]	3070 nM	66%	84%	23%	69%
CN(C(=O)CN1CCC2(CC1)COc1c2ccc2c1C(=O)N(C1CCC(=O)NC1=O)C2=O)C1CCC2(CC1)CN(c1ccc([C@@H]3c4ccc(O)cc4CC[C@@H]3c3ccccc3)cc1)C2 (some centres unmarked) [K44]	936 nM	36%	66%	1%	56%
CN(C(=O)CN1CC2(CCc3cc4c(cc3O2)CN(C2CCC(=O)NC2=O)C4=O)C1)C1CCC2(CC1)CN(c1ccc([C@@H]3c4ccc(O)cc4CC[C@@H]3c3ccccc3)cc1)C2 (some centres unmarked) [K45]	75.2 nM	37%	74%	21%	59%
O=C1CCC(N2Cc3c(ccc4c3OCC43CCN(CC(=O)N4CCC(OC5CCN(c6ccc([C@@H]7c8ccc(O)cc8CC[C@@H]7c7ccccc7)cc6)CC5)CC4)CC3)C2=O)C(=O)N1 (some centres unmarked) [K46]	85 nM	73%	90%	54%	85%
O=C1CCC(N2Cc3c(ccc4c3OCC43CCN(C(=O)CN4CCC(OC5CCN(c6ccc([C@@H]7c8ccc(O)cc8CC[C@@H]7c7ccccc7)cc6)CC5)CC4)CC3)C2=O)C(=O)N1 (some centres unmarked) [K47]	80.2 nM	74%	89%	57%	80%
O=C1CCC(N2Cc3c(ccc4c3OCC43CCN(C(=O)[C@H]4C[C@H](OC5CCN(c6ccc([C@@H]7c8ccc(O)cc8CC[C@@H]7c7ccccc7)cc6)CC5)C4)CC3)C2=O)C(=O)N1 (some centres unmarked) [K48]	9210 nM	47%	80%	20%	42%
O=C1CCC(N2Cc3c(ccc4c3OCC43CCN(C4CCC(OC5CCN(c6ccc([C@@H]7c8ccc(O)cc8CC[C@@H]7c7ccccc7)cc6)CC5)CC4)CC3)C2=O)C(=O)N1 (some centres unmarked) [K50]	83.3 nM	52%	84%	19%	72%
O=C1CCC(N2C(=O)c3ccc4c(c3C2=O)OCC42CCN(C3CCC4(CC3)CCN(c3ccc([C@@H]5c6ccc(O)cc6CC[C@@H]5c5ccccc5)cc3)CC4)CC2)C(=O)N1 (some centres unmarked) [L4]	970 nM	9%	44%	9%	48%
